90 molecules from ChEMBL document CHEMBL3988442, “University of Dundee, Small-Polar-MMV Screening Library” (2021) can be followed below.

Each structure is given as a SMILES string. Where only a bound is given, the exact number is not on record here.

The target in assay [1] is ClpP1P2 (Mycobacterium tuberculosis (strain ATCC 25618 / H37Rv), UniProt P9WPC3+P9WPC5). In words: in vitro assay to detect presence of AMC directly proportional to the activity of ClpP1P2. GHDDI collaboration. The format is functional.
Assay [2] concerns the target Tryptophan--tRNA ligase (Mycobacterium tuberculosis (strain ATCC 25618 / H37Rv), UniProt P9WFT3). Nature of the assay: Biochemical assay for Mt-TrpRS. The format is functional.
Assay [3] is described as follows: microbe, parasite or virus in culture. Particulars: Mycobacterium tuberculosis, 72 h, read-out: pIC50 (converted).
Assay [4] is described as follows: microbe, parasite or virus in culture. Particulars: Mycobacterium tuberculosis, 96 h, read-out: pIC50 (converted).
The test system of assay [5] is Schistosoma mansoni. Nature of the assay: High throughput screening of compounds against Schistosoma mansoni motility. The format is functional. Also on record: dose or concentration left out as unconfirmed.
For assay [6], the system named is Plasmodium falciparum. In words: Calibr Malaria Delayed Death Assay SOP. The format is functional, organism-based.

Sequence of Tryptophan--tRNA ligase (P9WFT3 whole entry): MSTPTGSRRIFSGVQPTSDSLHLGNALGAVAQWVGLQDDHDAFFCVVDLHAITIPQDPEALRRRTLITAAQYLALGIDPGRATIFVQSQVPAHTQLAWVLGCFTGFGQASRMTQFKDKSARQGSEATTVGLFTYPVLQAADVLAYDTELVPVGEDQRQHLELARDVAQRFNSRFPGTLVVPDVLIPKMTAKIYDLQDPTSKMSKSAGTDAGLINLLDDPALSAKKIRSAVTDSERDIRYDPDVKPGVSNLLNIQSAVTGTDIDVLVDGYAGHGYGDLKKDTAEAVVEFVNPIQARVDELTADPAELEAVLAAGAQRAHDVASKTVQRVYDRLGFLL
Sequence of ClpP1P2 (P9WPC5 whole entry): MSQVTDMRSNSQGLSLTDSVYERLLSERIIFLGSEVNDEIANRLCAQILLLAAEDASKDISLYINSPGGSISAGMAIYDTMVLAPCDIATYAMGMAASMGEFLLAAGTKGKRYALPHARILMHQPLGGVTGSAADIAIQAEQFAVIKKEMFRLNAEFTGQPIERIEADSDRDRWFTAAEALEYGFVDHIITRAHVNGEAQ
Sequence of ClpP1P2 (P9WPC3 whole entry): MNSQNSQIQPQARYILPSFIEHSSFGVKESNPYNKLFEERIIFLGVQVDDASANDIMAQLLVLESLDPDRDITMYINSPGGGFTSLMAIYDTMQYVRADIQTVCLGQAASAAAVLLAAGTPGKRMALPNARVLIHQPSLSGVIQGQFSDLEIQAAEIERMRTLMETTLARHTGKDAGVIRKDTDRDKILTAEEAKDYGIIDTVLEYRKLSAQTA

`COc1ccc2c(c1)C(=O)CC1(CCN(Cc3ccc(F)cc3)CC1)O2`: the IC50 in assay [1] was over 100 µM; in assay [2], over 195 µM.
For `NC(=O)CN1CCC2(CC1)CC(=O)c1ccc3ccccc3c1O2`, the IC50 in assay [1] is over 100 µM; in assay [2], over 195 µM.
With `CO[C@H]1CN(S(=O)(=O)c2ccc(F)cc2)C[C@@]12CCCO2`, the IC50 was over 100 µM in assay [1] and over 195 µM in assay [2].
Take `COCCC(=O)N1CCC(C(=O)c2cc(C)cnc2N)CC1`: the results for the IC50 in assay [3], in assay [2] and in assay [4] were over 50.1 µM, over 195 µM and over 50.1 µM, respectively.
On to `CC(=O)N1CCCC(c2ccc(Cc3ccccc3)cn2)C1` (stereo unspecified), for which the IC50 is 15.3 µM in assay [3], over 195 µM in assay [2] and 23.5 µM in assay [4].
Regarding `O=C1CN(Cc2nnc(-c3ccc(Br)cc3)o2)CCN1`, the IC50 in assay [2] is over 195 µM. In assay [5], the “Percent Effect” value is listed as -48.54%.
On the same counts, the results for `O=C(CCc1ccsc1)NCC1CCN(c2ccccc2)C1` (stereo unspecified) are over 195 µM and 6.73%.
On the same counts, the results for `CC(Cn1cccn1)NC(=O)Nc1ccc(N(C)C)nc1` (stereo unspecified) are over 195 µM and 0.4135%.
The like results for `Cc1cc(NC(=O)NCCc2cccs2)n(C)n1` were, in that order, over 195 µM and 9.063%.
`O=C1CN(Cc2nnc(-c3ccccc3Br)o2)CCN1` had an IC50 in assay [2] of over 195 µM. In addition, in assay [5], the “Percent Effect” value came to 12.25%.
`O=C(NCCCO)Nc1cccc(Cl)c1F` gave an IC50 in assay [2] of over 195 µM. Moreover, in assay [5], the “Percent Effect” value stood at 24.34%.
The like results for `O=C(NCCO)Nc1cccc(Cl)c1SC(F)F` were, in that order, over 195 µM and -20.44%.
The like results for `Cn1ccnc1-c1cccc(NC(=O)NCCCO)c1` were, in that order, over 195 µM and -1.514%.
As for `Cc1ccc(NC(=O)Cn2cc(I)cn2)cc1`, the IC50 in assay [2] is over 195 µM. Moreover, the “Percent Effect” value in assay [5] is reported as -1.868%.
`Cc1ccc(CC(=O)N2CCOC(c3nc(C)n[nH]3)C2)cn1` (stereo unspecified) showed an IC50 in assay [2] of over 195 µM. Further, the “Percent Effect” value in assay [5] is 13.87%.
The like results for `N#Cc1cccc(SCCS(N)(=O)=O)c1` were, in that order, over 195 µM and -35.02%.
Regarding `CN(CCCC#N)C1CCCN(Cc2noc(C3CC3)n2)C1` (stereo unspecified), in assay [2], the IC50 is over 195 µM. In assay [5], the “Percent Effect” value was -67.8%.
The like results for `CCc1cnc(CN(C(C)=O)C2CCN(CCS(C)(=O)=O)C2)o1` (stereo unspecified) were, in that order, over 195 µM and -22.31%.
The molecule `CN(Cc1cnn(C)c1)C(=O)NC1CCS(=O)(=O)C1` (stereo unspecified) showed an IC50 in assay [2] of over 195 µM. Moreover, in assay [5], the “Percent Effect” value is -4.908%.
The like results for `Cc1ccc(CNC(=O)Nc2cc(C(F)(F)F)c[nH]c2=O)cn1` were, in that order, over 195 µM and -4.568%.
The like results for `Cc1cnn(CC(C)NCc2nc(-c3ccco3)no2)c1` (stereo unspecified) were, in that order, over 195 µM and -25.07%.
The like results for `CCc1nnc2n1CCN(C(=O)c1ccc3[nH]cnc3c1)C2` were, in that order, over 195 µM and 19.35%.
Regarding `CN(Cc1cnn(C)c1)C(=O)NC1CCC(O)CC1` (stereo unspecified), in assay [2], the IC50 was over 195 µM. For the same molecule, the “Percent Effect” value in assay [5] was found to be 15.72%.
In the case of `COc1cccc(CNCCc2cc(F)cc3c2OCOC3)c1`, the IC50 in assay [2] was over 195 µM. Further, the “Percent Effect” value in assay [5] came out at 75.77%.
Take `CCN1CC[C@@H]2OC[C@H](C(=O)NCc3cccs3)C[C@@H]2C1`: the IC50 in assay [1] is over 100 µM; in assay [2], over 195 µM.
`CCO[C@H]1CC[C@H]2[C@@H]1OCCN2C(=O)COc1ccccc1`: the IC50 was over 50.1 µM in assay [3], over 195 µM in assay [2] and over 50.1 µM in assay [4].
`Cn1ccc(-c2cc(C(=O)N3CCC(O)CC3)c3ccccn23)n1`: the IC50 in assay [3] was over 50.1 µM; in assay [1] it was over 100 µM; in assay [2] it was over 195 µM; in assay [4] it was over 50.1 µM.
For the molecule `CC(C)N(C)CC(=O)N(C)C(c1cccc(F)c1)c1ccccn1` (stereo unspecified), in assay [2], the IC50 is over 195 µM.
On the same count and under the same terms, the same measure for `CC(=O)N(C)C(c1cccc(F)c1)c1ccccn1` (stereo unspecified): over 195 µM; for `COCCN1CCC(NCc2ccc(F)cc2F)C1` (stereo unspecified): over 195 µM; for `Cc1nn(C)c(C)c1C1COCCN1C(=O)c1ccc(Cl)o1` (stereo unspecified): over 195 µM.
`CCc1noc(CN2CCN(c3nccs3)CC2)n1` gave an IC50 in assay [2] of over 195 µM.
The molecule `Cn1cc(CCN2CCOC(CNc3cccnn3)C2)cn1` (stereo unspecified) gave an IC50 in assay [2] of over 195 µM.
Still for that read-out and setting: the same measure for `CCc1nnc(CN2CCCCC2Cn2cncn2)o1` (stereo unspecified): over 195 µM.
Still for that read-out and setting: the same measure for `CCC(O)CN1CCN(C(=O)c2cc3ccccc3n2CC)CC1` (stereo unspecified): over 195 µM.
Still for that read-out and setting: in the case of `CC(C)OCCCNC(=O)CS(=O)(=O)Cc1ccc(Cl)cc1` it was over 195 µM; in that of `CCC(CC)c1nnc(NC(=O)NC(C)Cn2cccn2)s1` (stereo unspecified), over 195 µM; in that of `CN(Cc1cnn(C)c1)C(=O)CN1CCCC(Cn2cncn2)C1` (stereo unspecified), over 195 µM.
For the molecule `CCN(CC1CCOC1)C(=O)c1cc(F)ccc1N1CCN(C)CC1` (stereo unspecified), the IC50 in assay [2] was over 195 µM.
Still for that read-out and setting: the same measure for `COc1c(CNC2CCCN(c3ncccn3)C2)c(C(C)C)nn1C` (stereo unspecified): over 195 µM; for `CCN(c1ccc(C(=O)N2CCCC2c2cnn(C)c2)cn1)C(C)C` (stereo unspecified): over 195 µM.
On the same count and under the same terms, in the case of `CN(CC(=O)Nc1cccnc1)C1CCCN(c2cccnn2)C1` (stereo unspecified) it was over 195 µM; in that of `O=S1(=O)CCC(N(Cc2nc3ccccc3o2)Cc2cccs2)C1` (stereo unspecified), over 195 µM.
The same measure, in the same setting: in the case of `Cc1noc(C)c1CN(Cc1cccs1)C1CCS(=O)(=O)C1` (stereo unspecified) it was over 195 µM.
On to `CN(C)C(=O)c1cccc(CN2CCN(CCO)CC2)c1`, for which the IC50 in assay [1] is over 100 µM; in assay [2], over 195 µM.
In assay [2], `NC(=O)C1CCN(C(=O)c2ccn(-c3ccc(F)cc3)n2)CC1` had an IC50 of over 195 µM.
Still for that read-out and setting: the same measure for `Cc1ccc(C(=O)NS(=O)(=O)c2ccccc2F)c(=O)[nH]1`: over 195 µM.
Same read-out and setting: in the case of `Cc1ccc(C(=O)NS(=O)(=O)c2ccccc2Cl)c(=O)[nH]1` it was over 195 µM.
Still for that read-out and setting: the same measure for `CC1CCN(CCCNC(=O)NC(C)c2nncn2C)CC1` (stereo unspecified): over 195 µM.
As to `COCCN1CCN(CCS(C)(=O)=O)CC1C` (stereo unspecified), the IC50 in assay [2] is over 195 µM.
Molecule `N#Cc1ccc(CN2CCCCC2Cn2cccn2)cc1` (stereo unspecified) showed an IC50 in assay [2] of over 195 µM.
Same read-out and setting: in the case of `Cc1nc(C2CCCN2CC(=O)N(C)Cc2ccsc2)no1` (stereo unspecified) it was over 195 µM.
Still for that read-out and setting: in the case of `Cc1nnc2n1CCN(Cc1csc(-c3ncccn3)n1)C2` it was over 195 µM; in that of `Cc1cnn(CC2CCCN2Cc2nnc(C(C)C)o2)c1` (stereo unspecified), over 195 µM.
With `c1cnnc(N2CCCC(NCc3nc(-c4ccco4)no3)C2)c1` (stereo unspecified), the IC50 in assay [2] was over 195 µM.
Same read-out and setting: in the case of `COc1ccccc1C1(C(=O)NCCN2CCCCC2)CCOCC1` it was over 195 µM; in that of `Cc1ncsc1C(=O)N(Cc1ccccn1)C1CC1`, over 195 µM.
Molecule `CC(NCc1c(C(C)C)nn(C)c1N1CCOCC1)C(=O)N(C)C` (stereo unspecified) had an IC50 in assay [2] of over 195 µM.
Same read-out and setting: in the case of `Cc1nn(C)c(N(C)C)c1CNCCS(C)(=O)=O` it was over 195 µM.
Same read-out and setting: in the case of `CCS(=O)(=O)NCCCNCc1c(C)nn(C)c1N(C)C` it was over 195 µM; in that of `CCOCCN1CCC(C(=O)c2cc(F)ccc2F)CC1`, over 195 µM; in that of `CCc1ccc(C(=O)N2CCN(CC(O)CC)CC2)o1` (stereo unspecified), over 195 µM.
Molecule `CCN(CC)Cc1ccc(C(=O)N2CCN(CC(C)O)CC2)o1` (stereo unspecified) gave an IC50 in assay [2] of over 195 µM.
The same measure, in the same setting: the same measure for `Cc1csc(CCNC(=O)NC(C)Cn2cccn2)n1` (stereo unspecified): over 195 µM; for `CC(Cn1cccn1)NC(=O)NCCc1ccsc1` (stereo unspecified): over 195 µM.
Consider `Cc1ccc(S(=O)(=O)Nc2ccc(=O)n(C)c2)c(Br)c1`, for which the IC50 in assay [2] was over 195 µM.
Same read-out and setting: in the case of `CCn1cnnc1C1CCN(C(=O)c2cc(C)c(C)s2)CC1` it was over 195 µM; in that of `Cc1cc(NC(=O)CNC2CCc3nc(C(C)C)nn3C2)no1` (stereo unspecified), over 195 µM.
On the same count and under the same terms, the same measure for `Nc1cc2c(nn1)CCN(C(=O)C1CCc3ccccc31)C2` (stereo unspecified): over 195 µM; for `Cc1cc(CNC(=O)N(Cc2ccc(F)cc2F)C2CC2)no1`: over 195 µM.
Same read-out and setting: in the case of `CCc1ccc(C(=O)N2CCC(c3nncn3CC)CC2)s1` it was over 195 µM.
`Cn1cnnc1C1CCN(C(=O)c2cc3c(s2)CCCC3)CC1`: the IC50 in assay [2] was over 195 µM.
Same read-out and setting: the same measure for `Cc1cnn(CC2CCCN2Cc2nc(N)c3ccccc3n2)c1` (stereo unspecified): over 195 µM; for `Fc1ccc(-c2nc(CN3CCCC3Cn3cncn3)co2)cc1` (stereo unspecified): over 195 µM.
Still for that read-out and setting: in the case of `Fc1cccc(-c2nc(CN3CCCC3Cn3cccn3)co2)c1` (stereo unspecified) it was over 195 µM.
Same read-out and setting: the same measure for `Cc1cc(CN2CCN(C(=O)NCc3ccco3)CC2)no1`: over 195 µM; for `CC(C)c1nc(CN2CCC(c3ccnn3CCO)CC2)no1`: over 195 µM; for `CN(C)c1ncccc1CNC(=O)N1CCCC1CN1CCCC1` (stereo unspecified): over 195 µM.
`COCCc1noc(CN(C)C2CCCN(c3cccnn3)C2)n1` (stereo unspecified): the IC50 in assay [2] was over 195 µM.
Regarding `CCn1cnnc1CNC(=O)NC(c1cccs1)C1CCCC1` (stereo unspecified), the IC50 in assay [2] is over 195 µM.
Molecule `Cc1ncsc1C(=O)NC1CCN(CCC#N)CC1` gave an IC50 in assay [2] of over 195 µM.
In the case of `Cn1cnnc1C1CCN(C(=O)CCOc2ccc(Cl)cc2)CC1`, the IC50 in assay [2] was over 195 µM.
On the same count and under the same terms, the same measure for `Cc1cc(NC(=O)CN2CCc3cncnc3C2)no1`: over 195 µM; for `CN(Cc1nnc2n1CCC2)C(=O)c1ccc2c(c1)OCCO2`: over 195 µM; for `Cc1cc(C)n(CC2CCCN2C(=O)c2c(C)noc2C)n1` (stereo unspecified): over 195 µM.
On the same count and under the same terms, the same measure for `O=C(COc1cccc(Cl)c1)N1CCOCC1c1ncon1` (stereo unspecified): over 195 µM; for `CC(C(=O)NCc1ccc(N2CCCC2)nc1)S(C)(=O)=O` (stereo unspecified): over 195 µM.
Take `CC(C)c1nc(CN2CCCC(Cn3cncn3)C2)cs1` (stereo unspecified): in assay [2], the IC50 was over 195 µM.
`Cl.NC(=O)COc1ccc(CNCc2ccc(F)c(F)c2)cc1` had an IC50 in assay [2] of over 195 µM. For the same molecule, the “Percent Effect” value in assay [5] was found to be 13.17%.
For the molecule `CO[C@H]1CCN(Cc2ccoc2)C[C@@H]1Cc1ccccc1.O=C(O)C(F)(F)F`, the IC50 was over 195 µM in assay [2] and 1.2 µM in assay [6] (Plasmodium falciparum). Moreover, in assay [6], the pIC50 is reported as 5.889.

The pIC50 is −log10 of the IC50, conventionally taken in molar units.
